# Key:
# [1] = molecular target: T1, ApK (A. phagocytophilum DnaK) (Anaplasma phagocytophilum, UniProt Q2GKZ8); experiment: fluorescence anisotropy of FITC-labeled peptide B2 (nucleotide effect on peptide binding); conditions: 2 mM ADP; indirect read-out through labelled peptide B2
# T1 sequence (Q2GKZ8 1-645): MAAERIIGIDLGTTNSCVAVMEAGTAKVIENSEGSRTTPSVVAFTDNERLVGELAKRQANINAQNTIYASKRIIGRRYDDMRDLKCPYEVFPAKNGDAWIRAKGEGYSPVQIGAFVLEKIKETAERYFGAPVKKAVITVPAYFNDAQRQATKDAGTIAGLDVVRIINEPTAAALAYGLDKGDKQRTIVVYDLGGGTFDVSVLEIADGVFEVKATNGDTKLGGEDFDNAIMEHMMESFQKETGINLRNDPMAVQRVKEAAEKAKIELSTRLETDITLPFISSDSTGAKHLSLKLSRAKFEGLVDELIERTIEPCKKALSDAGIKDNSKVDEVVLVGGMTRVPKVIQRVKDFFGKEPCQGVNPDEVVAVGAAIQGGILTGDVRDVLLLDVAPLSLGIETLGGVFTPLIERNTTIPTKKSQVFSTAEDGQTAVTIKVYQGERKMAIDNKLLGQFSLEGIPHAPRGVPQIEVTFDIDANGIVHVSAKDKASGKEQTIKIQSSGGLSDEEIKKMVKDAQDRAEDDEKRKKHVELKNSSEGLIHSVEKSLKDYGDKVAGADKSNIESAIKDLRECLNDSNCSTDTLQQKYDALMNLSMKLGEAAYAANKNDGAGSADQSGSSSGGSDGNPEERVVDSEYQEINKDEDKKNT
# [2] = molecular target: EcB (E. coli ClpB) (Escherichia coli, UniProt P63284); experiment: malachite green phosphate release (ATPase); assay type: biochemical; conditions: 5 mM ATP, 20 mM MgCl2, pH 7.4, 37 °C; basal (no casein or poly-lysine)
# [3] = molecular target: T1, ApK (A. phagocytophilum DnaK); experiment: malachite green phosphate release (ATPase); assay type: biochemical; conditions: 5 mM ATP, 20 mM MgCl2, pH 7.4, 37 °C; basal (no casein or poly-lysine)
# [4] = molecular target: EcK (E. coli DnaK) (Escherichia coli, UniProt P0A6Y8); conditions: 5 mM ATP, 20 mM MgCl2, pH 7.4, 37 °C; basal (no casein or poly-lysine)
# [5] = molecular target: T2, ApB (A. phagocytophilum ClpB) (Anaplasma phagocytophilum, UniProt Q2GL99); conditions: 5 mM ATP, 20 mM MgCl2, pH 7.4, 37 °C; basal (no casein or poly-lysine)
# T2 sequence (Q2GL99 1-859): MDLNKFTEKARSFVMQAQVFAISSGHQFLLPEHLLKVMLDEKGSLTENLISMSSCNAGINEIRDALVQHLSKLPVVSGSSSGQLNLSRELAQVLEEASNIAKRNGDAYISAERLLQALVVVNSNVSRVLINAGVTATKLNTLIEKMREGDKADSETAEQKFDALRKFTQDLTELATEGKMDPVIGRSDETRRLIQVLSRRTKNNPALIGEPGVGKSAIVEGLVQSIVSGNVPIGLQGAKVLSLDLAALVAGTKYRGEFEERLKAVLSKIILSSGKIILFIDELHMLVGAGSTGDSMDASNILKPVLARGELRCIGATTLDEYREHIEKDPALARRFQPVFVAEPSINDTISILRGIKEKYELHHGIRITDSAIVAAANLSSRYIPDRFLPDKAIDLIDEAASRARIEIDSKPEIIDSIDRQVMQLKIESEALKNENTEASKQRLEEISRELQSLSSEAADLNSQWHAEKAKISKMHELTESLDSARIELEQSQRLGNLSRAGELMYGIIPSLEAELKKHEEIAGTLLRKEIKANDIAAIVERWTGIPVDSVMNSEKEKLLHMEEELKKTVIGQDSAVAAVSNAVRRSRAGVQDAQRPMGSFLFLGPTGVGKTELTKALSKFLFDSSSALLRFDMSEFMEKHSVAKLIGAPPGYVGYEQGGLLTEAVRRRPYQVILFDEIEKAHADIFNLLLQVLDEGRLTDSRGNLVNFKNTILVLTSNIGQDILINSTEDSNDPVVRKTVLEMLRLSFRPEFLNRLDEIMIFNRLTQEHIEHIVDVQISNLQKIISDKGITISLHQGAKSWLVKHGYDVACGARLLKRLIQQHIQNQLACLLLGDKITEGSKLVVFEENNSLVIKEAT
# Sequence of EcB (E. coli ClpB) (P63284 whole entry): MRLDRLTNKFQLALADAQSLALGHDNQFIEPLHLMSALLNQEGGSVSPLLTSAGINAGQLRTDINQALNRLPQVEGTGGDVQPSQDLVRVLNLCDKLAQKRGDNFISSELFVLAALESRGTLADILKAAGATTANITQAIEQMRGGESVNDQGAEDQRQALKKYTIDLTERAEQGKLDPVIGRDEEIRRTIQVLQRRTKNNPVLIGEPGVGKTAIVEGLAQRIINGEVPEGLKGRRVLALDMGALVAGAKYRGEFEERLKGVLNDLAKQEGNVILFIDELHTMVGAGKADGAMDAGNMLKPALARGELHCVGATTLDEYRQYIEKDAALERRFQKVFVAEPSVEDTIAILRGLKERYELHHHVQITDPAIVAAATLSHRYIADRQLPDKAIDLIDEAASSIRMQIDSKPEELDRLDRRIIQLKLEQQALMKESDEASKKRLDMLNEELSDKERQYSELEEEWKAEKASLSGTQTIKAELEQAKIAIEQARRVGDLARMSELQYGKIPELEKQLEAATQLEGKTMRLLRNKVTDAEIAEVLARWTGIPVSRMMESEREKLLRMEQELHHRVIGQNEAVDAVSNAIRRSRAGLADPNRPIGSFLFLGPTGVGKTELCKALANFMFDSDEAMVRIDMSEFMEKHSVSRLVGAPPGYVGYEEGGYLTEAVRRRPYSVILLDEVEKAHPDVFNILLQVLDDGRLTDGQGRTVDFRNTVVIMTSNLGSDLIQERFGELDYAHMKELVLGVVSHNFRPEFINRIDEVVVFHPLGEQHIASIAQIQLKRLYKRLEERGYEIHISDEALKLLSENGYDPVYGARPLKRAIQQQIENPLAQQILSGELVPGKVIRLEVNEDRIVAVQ
# Sequence of EcK (E. coli DnaK) (P0A6Y8 2-638): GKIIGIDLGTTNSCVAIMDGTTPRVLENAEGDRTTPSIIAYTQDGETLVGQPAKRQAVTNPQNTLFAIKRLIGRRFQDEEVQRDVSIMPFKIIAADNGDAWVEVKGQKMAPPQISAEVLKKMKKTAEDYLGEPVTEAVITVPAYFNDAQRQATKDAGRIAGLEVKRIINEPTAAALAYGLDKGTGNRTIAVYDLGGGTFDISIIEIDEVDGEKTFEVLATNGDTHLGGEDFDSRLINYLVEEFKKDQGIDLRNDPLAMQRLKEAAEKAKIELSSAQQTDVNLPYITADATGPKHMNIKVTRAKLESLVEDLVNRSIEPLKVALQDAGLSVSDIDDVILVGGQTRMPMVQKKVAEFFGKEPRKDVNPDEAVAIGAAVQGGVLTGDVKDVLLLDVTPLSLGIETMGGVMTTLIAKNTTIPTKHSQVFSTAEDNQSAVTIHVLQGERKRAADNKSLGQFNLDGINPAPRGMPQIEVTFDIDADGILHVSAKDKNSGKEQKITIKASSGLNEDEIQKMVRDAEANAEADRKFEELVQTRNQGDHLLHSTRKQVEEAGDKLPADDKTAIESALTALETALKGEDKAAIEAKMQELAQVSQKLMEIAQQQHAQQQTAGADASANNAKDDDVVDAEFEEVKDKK
SMILES,fluorescence anisotropy of FITC-labeled peptide B2 (nucleotide effect on peptide) [1],ATPase activity [2],ATPase activity [3],ATPase activity [4],ATPase activity [5]
Nc1ncnc2c1ncn2[C@@H]1O[C@H](COP(=O)(O)OP(=O)(O)O)[C@@H](O)[C@H]1O [ADP],ADP induced a strong binding of B2 to ApK,–,–,–,–
Nc1ncnc2c1ncn2[C@@H]1O[C@H](COP(=O)(O)OP(=O)(O)OP(=O)(O)O)[C@@H](O)[C@H]1O [ATP],–,the basal ATPase activity of ApB exceeded that of EcB,The basal ATPase activity of ApK was lower than that of EcK,The basal ATPase activity of ApK was lower than that of EcK,the basal ATPase activity of ApB exceeded that of EcB
